Where two headings read alike, the source gives them in different places. Ends that are not written are not given here.
Columns and labels:
[1] = test system: C57BL/6J mice
Description: The subcutaneous injections were placed at the lower back. On study day 8, the mice were terminated and the GI tract was removed for weight determination.

[2] = test system: C57BL/6J mice; experiment: Gut proliferation in C57BL/6J mice, PoC study 2 (liraglutide and teduglutide); assay type: in vivo
Description: (§1) Forty (40, n=10, 4 groups) male C57BL/6J mice obtained from Taconic, Denmark, were used. At the time of the experiment, the mice had reached an age of 9-10 weeks. The mice were acclimatized for one week in their new environment and offered regular chow diet (Altromin 1324, Brogaarden A/S, Denmark) and domestic quality tap water. Animals were housed two per cage during the study, in a light-, temperature-, and humidity-controlled room (12-hour light: 12-hour dark cycle, lights on/off at 4 AM/4 PM hour; 22±1° C.; 50±10% relative humidity). […] Animals were uniquely identified with implantable microchips (Pet ID Microchip, E-vet) in all mice upon arrival. Animals were identified using the WS-2 weight station (MBrose ApS, Faaborg, Denmark) connected to a laptop running the HM02Lab software (Ellegaard Systems, Faaborg, Denmark). The HM02Lab software matches the body weight with ID and calculates the dose directly based on the body weight. All mice were handled for 3 days prior to the experiment to acclimatize the animals to handling and injections.

[3] = target: T1, GLP-2R (Homo sapiens, UniProt O95838); experiment: GLP2 receptor efficacy assay (in vitro functional screen, Euroscreen or DiscoveRx); conditions: EC50 of native GLP-2 / EC50 of compound
T1 sequence (O95838 1-553): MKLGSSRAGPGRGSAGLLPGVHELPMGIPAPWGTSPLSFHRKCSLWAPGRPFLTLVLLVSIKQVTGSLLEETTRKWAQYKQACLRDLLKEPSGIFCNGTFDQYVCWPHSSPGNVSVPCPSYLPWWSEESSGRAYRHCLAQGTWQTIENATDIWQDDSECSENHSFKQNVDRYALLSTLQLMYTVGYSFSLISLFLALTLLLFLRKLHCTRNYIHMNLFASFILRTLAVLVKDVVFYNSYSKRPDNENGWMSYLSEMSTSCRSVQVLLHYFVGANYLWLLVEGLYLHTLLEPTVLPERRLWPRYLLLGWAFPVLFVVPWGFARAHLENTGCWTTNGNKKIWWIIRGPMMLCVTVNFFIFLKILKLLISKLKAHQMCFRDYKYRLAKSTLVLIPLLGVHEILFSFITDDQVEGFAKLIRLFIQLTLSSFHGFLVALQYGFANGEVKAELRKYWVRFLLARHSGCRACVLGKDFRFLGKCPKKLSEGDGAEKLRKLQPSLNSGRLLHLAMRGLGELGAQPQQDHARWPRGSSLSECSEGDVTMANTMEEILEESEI

[4] = test system: C57BL/6J mice; experiment: GLP1R-GLP2R dual agonist compound study: gut wet weight; assay type: in vivo; conditions: Day 8; 3.0 mg/kg BID SC; mean ± S.E.M.
Description: On study day 8, the mice were terminated and the GI tract was removed for determination of the gut wet weight. The gut wet weight results are listed below in Table 12.

[5] = test system: C57BL/6J mice; experiment: GLP1R-GLP2R dual agonist compound study: oral glucose tolerance test; assay type: in vivo; conditions: Day 7; 3.0 mg/kg BID SC; glucose 2 g/kg oral; mean ± S.E.M.
Protocol: On day 7, an oral glucose tolerance test (OGTT) was performed. Animals were mildly fasted as all food was removed 4 hours prior to the oral glucose load. Vehicle (SC) and compounds were administered subcutaneously (SC) 2 hours prior to the OGTT. At t=0 mice received an oral glucose load (2 g/kg; 4 ml/kg; 500 mg/ml, Fresenius Kabi, Sweden). Glucose was given as gavage via a gastrically-placed tube connected to a syringe ensuring accurate dosing. Blood glucose was measured from tail vein blood before glucose (at t=−120 and 0 min, baseline) and after glucose administration at t=15, 30, 60 and 120 min. Blood samples (tail vein) was collected into 10 μl heparinized glass capillary tubes and immediately suspended in buffer (0.5 ml of glucose/lactate system solution (EKF-diagnostics, Germany) and analyzed for glucose on the test day using a BIOSEN c-Line glucose meter (EKF-diagnostics, Germany) according to manufacturer's instructions. Results from the OGTT are listed below in Table 11.

[6] = test system: C57BL/6J mice; experiment: GLP1R-GLP2R dual agonist compound study: cumulative food intake; assay type: in vivo; conditions: Day 0-7; 3.0 mg/kg BID SC; mean ± S.E.M.
Description: as §1

[7] = test system: lean NMRI mice; experiment: Acute effect on food intake in lean NMRI mice; assay type: in vivo; conditions: for Cumulative food intake following administration of a single dose: 50 nmol/kg s.c., mean ± S.E.M.
Protocol: All animals were housed in groups of four. The animal room environment were controlled (targeted ranges: temperature 22±2° C.; relative humidity 50±10%; light/dark cycle: 12 hours light, 12 hours dark, lights off from 14.00 to 02.00 hours). The mice had ad libitum access to Altromin (Brogaarden, Denmark) and tap water. Mice arrived 5 days prior to the initiation of the study and were transferred to the HM-2 system. From arrival day no food was provided in the cages thereby forcing the animals to learn to eat from the food channels thus habituating the animals faster to the HM-2 system. Food intake and body weight were measured from day −3 and throughout the study. Food intake data were collected using the HM-2 real-time food intake monitoring system, an online computerized feeding system using digital weighing cells. As the animals were uniquely identified with microchips, each individual mouse was identified by its corresponding microchip upon entry and exit from the food channel. The HM-2 system continuously and in real-time mode monitored feeding activity in two independent channels and recorded the start and finishing time of each meal and the amount of food consumed by each animal within the selected time interval without human intervention. The net food intake was calculated by the HM-2 control unit software (HMLab, MBRose, Faaborg, Denmark).
Doses were administered subcutaneously (dose volume 5 ml/kg), in the lower back region. Food intake was measured up to 68 hours following the dosing of the animals.

[8] = test system: lean C57BL/6J mice; experiment: Sub-acute effect on body weight in lean C57BL/6J mice; assay type: in vivo; conditions: for Body weight change in percent to baseline body weight: 50 nmol/kg BID SC, mean ± S.E.M.
Protocol: Eighteen (18) male C57/BL6J mice obtained from Janvier, France, were used. At the time of experimentation the mice had reached an age of 9 weeks. The mice were acclimatized for one week in their new environment and offered regular chow diet (Altromin 1324, Brogaarden A/S, Denmark) and domestic quality tap water. Animals were housed six per cage during the study, in a light-, temperature-, and humidity-controlled room (12-hour light:12-hour dark cycle, lights on/off at 4 AM/4 PM hour; 22±1° C.; 50±10% relative humidity).
Dosing volume was 5 ml/kg, SC.
The compounds were dissolved in PBS buffer containing 0.1% BSA, pH 7.4. The subcutaneous injections were placed at the lower back. All mice were handled for 3 days prior to experimentation to acclimatize the animals to handling and injections.

[9] = target: T2, human GLP-2 receptor (human, UniProt O95838 1-553, limits assumed); experiment: cell-based or functional assay
T2 sequence (looked up): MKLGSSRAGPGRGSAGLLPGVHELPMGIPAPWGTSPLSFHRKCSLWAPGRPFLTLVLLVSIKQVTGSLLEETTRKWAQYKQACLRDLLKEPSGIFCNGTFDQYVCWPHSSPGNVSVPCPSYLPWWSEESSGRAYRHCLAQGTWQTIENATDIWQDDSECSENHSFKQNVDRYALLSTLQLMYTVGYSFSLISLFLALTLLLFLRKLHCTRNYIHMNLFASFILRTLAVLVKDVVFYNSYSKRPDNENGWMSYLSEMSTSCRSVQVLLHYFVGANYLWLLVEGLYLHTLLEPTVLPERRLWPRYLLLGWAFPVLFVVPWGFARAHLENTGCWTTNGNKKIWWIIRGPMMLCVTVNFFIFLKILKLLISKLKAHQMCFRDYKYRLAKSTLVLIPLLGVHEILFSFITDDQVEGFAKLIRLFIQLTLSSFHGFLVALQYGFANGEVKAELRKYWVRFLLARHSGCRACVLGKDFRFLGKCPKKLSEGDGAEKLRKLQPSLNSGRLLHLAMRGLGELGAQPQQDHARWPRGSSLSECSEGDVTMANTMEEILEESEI

[10] = target: T3, human GLP-1 receptor (human, UniProt P43220 24-463, limits assumed); experiment: cell-based or functional assay
[11] = target: T2, human GLP-2 receptor; experiment: cell-based or functional assay; remark: listed apart in the source
[12] = target: T3, human GLP-1 receptor; experiment: cell-based or functional assay; remark: listed apart in the source
[13] = Day 8, BID SC, liraglutide 0.2 mg/kg, teduglutide 1.0 mg/kg, alone or combined, mean ± S.E.M.

For `CC[C@H](C)[C@H](NC(=O)[C@H](Cc1ccccc1)NC(=O)[C@H](CC(=O)O)NC(=O)[C@H](CCCNC(=N)N)NC(=O)[C@H](C)NC(=O)[C@H](C)NC(=O)[C@H](CC(C)C)NC(=O)[C@H](CC(N)=O)NC(=O)[C@H](CC(=O)O)NC(=O)[C@H](CC(C)C)NC(=O)[C@@H](NC(=O)[C@@H](NC(=O)[C@H](CC(N)=O)NC(=O)[C@H](CCSC)NC(=O)[C@H](CCC(=O)O)NC(=O)[C@H](CC(=O)O)NC(=O)[C@H](CO)NC(=O)[C@H](Cc1ccccc1)NC(=O)[C@H](CO)NC(=O)CNC(=O)[C@H](CC(=O)O)NC(=O)[C@H](C)NC(=O)[C@@H](N)Cc1c[nH]cn1)[C@@H](C)O)[C@@H](C)CC)C(=O)N[C@@H](CC(N)=O)C(=O)N[C@@H](Cc1c[nH]c2ccccc12)C(=O)N[C@@H](CC(C)C)C(=O)N[C@H](C(=O)N[C@@H](CCC(N)=O)C(=O)N[C@H](C(=O)N[C@@H](CCCCN)C(=O)N[C@H](C(=O)N[C@H](C(=O)N[C@@H](CC(=O)O)C(=O)O)[C@@H](C)O)[C@@H](C)CC)[C@@H](C)O)[C@@H](C)CC` [GLP-2], the Total intestine weight ([1]; Day 8, 3 mg/kg BID SC, female C57BL/6J mice, mean ± S.E.M.) was 1256 ± 30.1 mg and the “increase in intestinal weight compared to vehicle” value ([1]; seven days of dosing, 3.0 mg/kg each BID SC) was “approx. 25%”.

In the case of `CC[C@H](C)[C@H](NC(=O)[C@H](Cc1ccccc1)NC(=O)[C@H](CC(=O)O)NC(=O)[C@H](CCCNC(=N)N)NC(=O)[C@H](C)NC(=O)[C@H](C)NC(=O)[C@H](CC(C)C)NC(=O)[C@H](CC(N)=O)NC(=O)[C@H](CC(=O)O)NC(=O)[C@H](CC(C)C)NC(=O)[C@@H](NC(=O)[C@@H](NC(=O)[C@H](CC(N)=O)NC(=O)[C@H](CCSC)NC(=O)[C@H](CCC(=O)O)NC(=O)[C@H](CC(=O)O)NC(=O)[C@H](CO)NC(=O)[C@H](Cc1ccccc1)NC(=O)[C@H](CO)NC(=O)CNC(=O)[C@H](CC(=O)O)NC(=O)CNC(=O)[C@@H](N)Cc1c[nH]cn1)[C@@H](C)O)[C@@H](C)CC)C(=O)N[C@@H](CC(N)=O)C(=O)N[C@@H](Cc1c[nH]c2ccccc12)C(=O)N[C@@H](CC(C)C)C(=O)N[C@H](C(=O)N[C@@H](CCC(N)=O)C(=O)N[C@H](C(=O)N[C@@H](CCCCN)C(=O)N[C@H](C(=O)N[C@H](C(=O)N[C@@H](CC(=O)O)C(=O)O)[C@@H](C)O)[C@@H](C)CC)[C@@H](C)O)[C@@H](C)CC` [Teduglutide], the Gut wet weight [2, 13] is reported as 2.6 ± 0.2 ^### g, the Large intestine length [2, 13] is reported as 5.1 ± 0.6 cm and the Large intestine weight [2, 13] is reported as 0.26 ± 0.03 g. For the same molecule, the Small intestine length [2, 13] was 22.9 ± 1.6 cm, the Small intestine weight [2, 13] was 1.3 ± 0.2 g and the “effect of single treatment on gut weight and length” value ([2]; PoC study 2, Tables 5, 6, 8, 9) was “increases in gut wet weight (Table 5), small intestine weight (Table 6) and small intestine length (Table 8)”. For the same molecule, the “relative GLP-2 activity” value [3] was 1.0, the Gut wet weight [4] was 3.0 ± 0.3 g and the “Oral glucose tolerance test AUC, 0-120 min” value [5] was 890 ± 182 mmol·min/L. For the same molecule, the Cumulative food intake [6] was 31.82 ± 6.52 g.

In the case of “R^1-H-G-D-G-S-F-T-S-E-L-S-T-Y-[K(C16-yE-)]-DALAARDFIAWLIQTKITDR^2 [SEQ ID NO 23]”, the “acute food intake compared to vehicle” value ([7]; 12 and 24 hours after single dose of 50 nmol/kg) is reported as “significantly reduce acute food intake to an similar extend as liraglutide”, the “Cumulative food intake following administration of a single dose” value ([7]; 12 h after dosing) is reported as 1.82 ± 0.24 grams pr mice and the “Cumulative food intake following administration of a single dose” value ([7]; 24 h after dosing) is reported as 2.83 ± 0.22 grams pr mice. The “Cumulative food intake following administration of a single dose” value ([7]; 60 h after dosing) was 11.43 ± 1.97 grams pr mice, the “food intake compared to vehicle” value ([7]; 60 hours after single dose of 50 nmol/kg) was “tends to still have an effect” and the “effect on body weight” value ([8]; 50 nmol/kg, after two days of administration, sustained up to seven days) was “significantly reduced the body weight”. The “Body weight change in percent to baseline body weight” value (“Body weight change in percent” below) ([8]; Day 0) was 100.0 ± 0.0%, the “Body weight change in percent” value ([8]; Day 2) was 90.7 ± 0.8 % and the “Body weight change in percent” value ([8]; Day 5) was 89.5 ± 1.8 %. The “Body weight change in percent” value ([8]; Day 7) was 90.8 ± 1.4 %.

B1: native human GLP-1 (ligand)
peptide: HAEGTFTSDVSSYLEGQAAKEFIAWLVKG
modifications: ends and bridges not checked
For B1, the “GLP-2R, EC50” value [9] was greater than 100 nM, the “GLP-1R, EC50” value [10] was 4 pM and the “GLP-2R, EC50” value [11] was greater than 1000 nM. The “GLP-1R, EC50” value [12] was 0.026 nM.

Reference: US20180280480A1, “COMPOSITIONS AND PEPTIDES HAVING DUAL GLP-1R AND GLP-2R AGONIST ACTIVITY” (priority 2014, published 2018)
